Key:
Chinese sprangletop = assay: Test Example 3: herbicidal effect by foliage application, Wagner pot (Table 18, symbol D); type: in vivo, chinese sprangletop (Leptochloa chinensis); conditions: for herbicidal effect on D (Chinese sprangletop), rating 0-5: 320 g/ha
In short: (§1)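 Plants were sown in alluvial soil held under 0.1–0.5 cm standing water and grown 14 days in a greenhouse at 25–30 °C. An emulsifiable formulation, water-diluted to the set dose, was then sprayed onto the foliage, and effects were scored three weeks later using previously defined criteria.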

velvetleaf = assay: Test Example 5: herbicidal effect by foliage application, plastic box (Table 20, symbol M); type: in vivo, velvetleaf (Abutilon theophrasti); conditions: foliage application; for M: velvetleaf, herbicidal effect: AAH 320 g/ha; for herbicidal effect on M: velvetleaf (criteria 0-5): evaluated three weeks after application
In short: (§2)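 Foliar spray test: emulsion formulation diluted in water to a set application rate, sprayed onto 14-day-old plants raised in diluvial soil at 25° C to 30° C under glass. Both herbicidal effect and crop effect rated visually three weeks later.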

windgrass = assay: Test Example 5: herbicidal effect by foliage application, plastic box (Table 20, symbol L); type: in vivo, windgrass (Apera spica-venti); conditions: foliage application; for L: windgrass, herbicidal effect: AAH 320 g/ha; for herbicidal effect on L: windgrass (criteria 0-5): evaluated three weeks after application
In short: as §2

rice flat sedge = assay: Test Example 3: herbicidal effect by foliage application, Wagner pot (Table 18, symbol E); type: in vivo, rice flat sedge (Cyperus iria); conditions: for herbicidal effect on E (rice flat sedge), rating 0-5: 320 g/ha
In short: as §1

chickweed = assay: Test Example 5: herbicidal effect by foliage application, plastic box (Table 20, symbol P); type: in vivo, common chickweed (Stellaria media); conditions: foliage application; for P: chickweed, herbicidal effect: AAH 320 g/ha; for herbicidal effect on P: chickweed (criteria 0-5): evaluated three weeks after application
From the text: [Test Example 5] Herbicidal Effect Test by Foliage Application
Sterilized diluvial soil was placed in a plastic box having a length of 21 cm, a width of 13 cm, and a depth of 7 cm. The seeds of each of southern crabgrass, green foxtail, barnyard grass, wild oat, blackgrass, Italian ryegrass, windgrass, velvetleaf, redroot pigweed, lambsquarters, chickweed, false cleavers, persian speedwell, corn, soybean, rice, wheat, beet, and rapeseed were sowed in a spot-like manner and covered with the soil having a thickness of about 1.5 cm. Thereafter, the plants were grown in a greenhouse at 25° C. to 30° C. After 14-day growth of the plants, the emulsion agent of the compound of the present invention prepared according to Formulation Example 2 was diluted with water so as to achieve a predetermined herbicide amount, and the diluted emulsion agent was uniformly applied to a foliage part with a small-sized spray. Three weeks after the herbicide application, the effect of the herbicide on each plant was evaluated according to the criteria of Test Example 1.

blackgrass = assay: Test Example 5: herbicidal effect by foliage application, plastic box (Table 20, symbol J); type: in vivo, blackgrass (Alopecurus myosuroides); conditions: foliage application; for J: blackgrass, herbicidal effect: AAH 320 g/ha; for herbicidal effect on J: blackgrass (criteria 0-5): evaluated three weeks after application
In short: as §2

wild oat = assay: Test Example 5: herbicidal effect by foliage application, plastic box (Table 20, symbol I); type: in vivo, wild oat (Avena fatua); conditions: foliage application; for I: wild oat, herbicidal effect: AAH 320 g/ha; for herbicidal effect on I: wild oat (criteria 0-5): evaluated three weeks after application
In short: as §2

persian speedwell = assay: Test Example 5: herbicidal effect by foliage application, plastic box (Table 20, symbol R); type: in vivo, Persian speedwell (Veronica persica); conditions: foliage application; for R: persian speedwell, herbicidal effect: AAH 320 g/ha; for herbicidal effect on R: persian speedwell (criteria 0-5): evaluated three weeks after application
In short: as §2

barnyard grass [1] = assay: Test Example 5: herbicidal effect by foliage application, plastic box (Table 20, symbol H); type: in vivo, barnyard grass (Echinochloa crus-galli); conditions: foliage application; for H: barnyard grass, herbicidal effect: AAH 320 g/ha; for herbicidal effect on H: barnyard grass (criteria 0-5): evaluated three weeks after application
In short: as §2

Italian ryegrass = assay: Test Example 5: herbicidal effect by foliage application, plastic box (Table 20, symbol K); type: in vivo, Italian ryegrass (Lolium multiflorum); conditions: foliage application; for K: Italian ryegrass, herbicidal effect: AAH 320 g/ha; for herbicidal effect on K: Italian ryegrass (criteria 0-5): evaluated three weeks after application
In short: as §2

lambsquarters = assay: Test Example 5: herbicidal effect by foliage application, plastic box (Table 20, symbol O); type: in vivo, lambsquarters (Chenopodium album); conditions: foliage application; for O: lambsquarters, herbicidal effect: AAH 320 g/ha; for herbicidal effect on O: lambsquarters (criteria 0-5): evaluated three weeks after application
In short: as §2

barnyard grass [2] = assay: Test Example 3: herbicidal effect by foliage application, Wagner pot (Table 18, symbol H); type: in vivo, barnyard grass (Echinochloa crus-galli); conditions: for herbicidal effect on H (barnyard grass), rating 0-5: 320 g/ha
In short: as §1

southern crabgrass = assay: Test Example 5: herbicidal effect by foliage application, plastic box (Table 20, symbol F); type: in vivo, southern crabgrass (Digitaria ciliaris); conditions: foliage application; for F: southern crabgrass, herbicidal effect: AAH 320 g/ha; for herbicidal effect on F: southern crabgrass (criteria 0-5): evaluated three weeks after application
In short: as §2

redroot pigweed = assay: Test Example 5: herbicidal effect by foliage application, plastic box (Table 20, symbol N); type: in vivo, redroot pigweed (Amaranthus retroflexus); conditions: foliage application; for N: redroot pigweed, herbicidal effect: AAH 320 g/ha; for herbicidal effect on N: redroot pigweed (criteria 0-5): evaluated three weeks after application
In short: as §2

green foxtail = assay: Test Example 5: herbicidal effect by foliage application, plastic box (Table 20, symbol G); type: in vivo, green foxtail (Setaria viridis); conditions: foliage application; for G: green foxtail, herbicidal effect: AAH 320 g/ha; for herbicidal effect on G: green foxtail (criteria 0-5): evaluated three weeks after application
In short: as §2

[3] = 320 g/ha, three weeks after application
[4] = amount of applied herbicide 320 g/ha

Structure (SMILES) | herbicidal effect on D (Chinese sprangletop), rating 0-5 (Chinese sprangletop) | herbicidal effect on E (rice flat sedge), rating 0-5 (rice flat sedge) | herbicidal effect on H (barnyard grass), rating 0-5 (barnyard grass [2]) | M: velvetleaf, herbicidal effect (velvetleaf; three weeks after application) | L: windgrass, herbicidal effect (windgrass; three weeks after application) | P: chickweed, herbicidal effect (chickweed; three weeks after application) | J: blackgrass, herbicidal effect (blackgrass; three weeks after application) | I: wild oat, herbicidal effect (wild oat; three weeks after application) | R: persian speedwell, herbicidal effect (persian speedwell; three weeks after application) | H: barnyard grass, herbicidal effect (barnyard grass [1]; three weeks after application) | K: Italian ryegrass, herbicidal effect (Italian ryegrass; three weeks after application) | O: lambsquarters, herbicidal effect (lambsquarters; three weeks after application) | F: southern crabgrass, herbicidal effect (southern crabgrass; three weeks after application) | N: redroot pigweed, herbicidal effect (redroot pigweed; three weeks after application) | G: green foxtail, herbicidal effect (green foxtail; three weeks after application) | herbicidal effect on M: velvetleaf (criteria 0-5) (velvetleaf; 320 g/ha) | herbicidal effect on L: windgrass (criteria 0-5) (windgrass; 320 g/ha) | herbicidal effect on P: chickweed (criteria 0-5) (chickweed; 320 g/ha) | herbicidal effect on J: blackgrass (criteria 0-5) (blackgrass; 320 g/ha) | herbicidal effect on I: wild oat (criteria 0-5) (wild oat; 320 g/ha) | further results
CCCC(=O)Oc1c(C)nn(C)c(=O)c1-c1c(-c2ccccc2SC)sc2ccccc12 [1-035] | 0 (Herbicidal rate of 5% or less (almost no effect)) | 4 (Herbicidal rate of 70% or more and less than 90%) | 3 (Herbicidal rate of 40% or more and less than 70%) | – | – | – | – | – | – | – | – | – | – | – | – | – | – | – | – | – | herbicidal effect grade, M: velvetleaf (velvetleaf; [3]): 0 (Herbicidal rate of 5% or less (almost no effect)); herbicidal effect grade, L: windgrass (windgrass; [3]): 0 (Herbicidal rate of 5% or less (almost no effect)); herbicidal effect grade, P: chickweed (chickweed; [3]): 1 (Herbicidal rate of 5% or more and less than 20%); herbicidal effect grade, J: blackgrass (blackgrass; [3]): 0 (Herbicidal rate of 5% or less (almost no effect)); herbicidal effect grade, I: wild oat (wild oat; [3]): 3 (Herbicidal rate of 40% or more and less than 70%); herbicidal effect grade, R: persian speedwell (persian speedwell; [3]): 0 (Herbicidal rate of 5% or less (almost no effect)); herbicidal effect grade, H: barnyard grass (barnyard grass [1]; [3]): 0 (Herbicidal rate of 5% or less (almost no effect)); herbicidal effect grade, K: Italian ryegrass (Italian ryegrass; [3]): 0 (Herbicidal rate of 5% or less (almost no effect)); herbicidal effect grade, O: lambsquarters (lambsquarters; [3]): 0 (Herbicidal rate of 5% or less (almost no effect)); herbicidal effect grade, F: southern crabgrass (southern crabgrass; [3]): 0 (Herbicidal rate of 5% or less (almost no effect)); herbicidal effect grade, N: redroot pigweed (redroot pigweed; [3]): 0 (Herbicidal rate of 5% or less (almost no effect)); herbicidal effect grade, G: green foxtail (green foxtail; [3]): 0 (Herbicidal rate of 5% or less (almost no effect))
COc1nn(C)c(=O)c(-c2c(-c3cccc(OC(F)(F)F)c3)sc3ccccc23)c1O [1-160] | 1 (Herbicidal rate of 5% or more and less than 20%) | 4 (Herbicidal rate of 70% or more and less than 90%) | 0 (Herbicidal rate of 5% or less (almost no effect)) | 1 (Herbicidal rate of 5% or more and less than 20%) | 0 (Herbicidal rate of 5% or less (almost no effect)) | 4 (Herbicidal rate of 70% or more and less than 90%) | 0 (Herbicidal rate of 5% or less (almost no effect)) | 0 (Herbicidal rate of 5% or less (almost no effect)) | 0 (Herbicidal rate of 5% or less (almost no effect)) | 1 (Herbicidal rate of 5% or more and less than 20%) | 1 (Herbicidal rate of 5% or more and less than 20%) | 1 (Herbicidal rate of 5% or more and less than 20%) | 0 (Herbicidal rate of 5% or less (almost no effect)) | 5 (Herbicidal rate of 90% or more (almost completely withered)) | 1 (Herbicidal rate of 5% or more and less than 20%) | – | – | – | – | – | –
CCCC(=O)Oc1c(OC)nn(C)c(=O)c1-c1c(-c2cccc(OC(F)(F)F)c2)sc2ccccc12 [1-161] | 0 (Herbicidal rate of 5% or less (almost no effect)) | 3 (Herbicidal rate of 40% or more and less than 70%) | 1 (Herbicidal rate of 5% or more and less than 20%) | 1 (Herbicidal rate of 5% or more and less than 20%) | 0 (Herbicidal rate of 5% or less (almost no effect)) | 0 (Herbicidal rate of 5% or less (almost no effect)) | 0 (Herbicidal rate of 5% or less (almost no effect)) | 0 (Herbicidal rate of 5% or less (almost no effect)) | 0 (Herbicidal rate of 5% or less (almost no effect)) | 0 (Herbicidal rate of 5% or less (almost no effect)) | 0 (Herbicidal rate of 5% or less (almost no effect)) | 0 (Herbicidal rate of 5% or less (almost no effect)) | 0 (Herbicidal rate of 5% or less (almost no effect)) | 3 (Herbicidal rate of 40% or more and less than 70%) | 0 (Herbicidal rate of 5% or less (almost no effect)) | – | – | – | – | – | –
CCCC(=O)Oc1c(C)nn(C)c(=O)c1-c1c(-c2ccc(F)cc2OC)sc2ccc(-c3ccc(OC(C)C)cc3)cc12 [2-169] | – | – | – | – | – | – | – | – | – | – | – | – | – | – | – | 0 (Herbicidal rate of 5% or less (almost no effect)) | 0 (Herbicidal rate of 5% or less (almost no effect)) | 0 (Herbicidal rate of 5% or less (almost no effect)) | 0 (Herbicidal rate of 5% or less (almost no effect)) | 0 (Herbicidal rate of 5% or less (almost no effect)) | herbicidal effect on R: persian speedwell (criteria 0-5) (persian speedwell; 320 g/ha): 0 (Herbicidal rate of 5% or less (almost no effect)); herbicidal effect on H: barnyard grass (criteria 0-5) (barnyard grass [1]; 320 g/ha): 0 (Herbicidal rate of 5% or less (almost no effect)); herbicidal effect on K: Italian ryegrass (criteria 0-5) (Italian ryegrass; 320 g/ha): 0 (Herbicidal rate of 5% or less (almost no effect)); herbicidal effect on O: lambsquarters (criteria 0-5) (lambsquarters; 320 g/ha): 3 (Herbicidal rate of 40% or more and less than 70%); herbicidal effect on F: southern crabgrass (criteria 0-5) (southern crabgrass; 320 g/ha): 0 (Herbicidal rate of 5% or less (almost no effect)); herbicidal effect on N: redroot pigweed (criteria 0-5) (redroot pigweed; 320 g/ha): 2 (Herbicidal rate of 20% or more and less than 40%); herbicidal effect on G: green foxtail (criteria 0-5) (green foxtail; 320 g/ha): 0 (Herbicidal rate of 5% or less (almost no effect))
Cc1nn(C)c(=O)c(-c2c(-c3cccc(OC(F)F)c3)sc3ccc(F)cc23)c1O [2-234] | – | – | – | – | – | – | – | – | – | – | – | – | – | – | – | 0 (Herbicidal rate of 5% or less (almost no effect)) | 0 (Herbicidal rate of 5% or less (almost no effect)) | 5 (Herbicidal rate of 90% or more (almost completely withered)) | 0 (Herbicidal rate of 5% or less (almost no effect)) | 0 (Herbicidal rate of 5% or less (almost no effect)) | herbicidal effect on D: Chinese sprangletop (Chinese sprangletop; [4]): 0 (Herbicidal rate of 5% or less (almost no effect)); herbicidal effect on E: rice flat sedge (rice flat sedge; [4]): 0 (Herbicidal rate of 5% or less (almost no effect)); herbicidal effect on R: persian speedwell (criteria 0-5) (persian speedwell; 320 g/ha): 5 (Herbicidal rate of 90% or more (almost completely withered)); herbicidal effect on H: barnyard grass (criteria 0-5) (barnyard grass [1]; 320 g/ha): 0 (Herbicidal rate of 5% or less (almost no effect)); herbicidal effect on K: Italian ryegrass (criteria 0-5) (Italian ryegrass; 320 g/ha): 0 (Herbicidal rate of 5% or less (almost no effect)); herbicidal effect on O: lambsquarters (criteria 0-5) (lambsquarters; 320 g/ha): 2 (Herbicidal rate of 20% or more and less than 40%); herbicidal effect on H: barnyard grass (barnyard grass [2]; [4]): 3 (Herbicidal rate of 40% or more and less than 70%); herbicidal effect on F: southern crabgrass (criteria 0-5) (southern crabgrass; 320 g/ha): 0 (Herbicidal rate of 5% or less (almost no effect)); herbicidal effect on N: redroot pigweed (criteria 0-5) (redroot pigweed; 320 g/ha): 4 (Herbicidal rate of 70% or more and less than 90%); herbicidal effect on G: green foxtail (criteria 0-5) (green foxtail; 320 g/ha): 0 (Herbicidal rate of 5% or less (almost no effect))
